Laboratory results taken from paper PMC6382696, “Drug Repurposing: The Anthelmintics Niclosamide and Nitazoxanide Are Potent TMEM16A Antagonists That Fully Bronchodilate Airways” (Frontiers in Pharmacology, 2019).
Read-outs that look alike come from different tables or passages of the source.

Assays:
TMEM16A (acd) = target: T1, TMEM16A (acd) (Homo sapiens, UniProt Q5XXA6); assay: QPatch whole-cell electrophysiology, HEK293 TMEM16A (acd); assay type: cell-based; details: for effect on inward current at −100 mV, whole cell patch clamp: 170 nM free calcium, Vhold 0 mV; for IC50 / calcium-activated chloride current inhibited: QPatch; for IC50: outward current at +100 mV, 170 nM free intracellular calcium, ~60 s per concentration, read-out: TMEM16A Chloride Current (IC50); for calcium-activated chloride current inhibited: maximum antagonist activity; for time to achieve steady state block: single concentration
T1 sequence (Q5XXA6 1-986): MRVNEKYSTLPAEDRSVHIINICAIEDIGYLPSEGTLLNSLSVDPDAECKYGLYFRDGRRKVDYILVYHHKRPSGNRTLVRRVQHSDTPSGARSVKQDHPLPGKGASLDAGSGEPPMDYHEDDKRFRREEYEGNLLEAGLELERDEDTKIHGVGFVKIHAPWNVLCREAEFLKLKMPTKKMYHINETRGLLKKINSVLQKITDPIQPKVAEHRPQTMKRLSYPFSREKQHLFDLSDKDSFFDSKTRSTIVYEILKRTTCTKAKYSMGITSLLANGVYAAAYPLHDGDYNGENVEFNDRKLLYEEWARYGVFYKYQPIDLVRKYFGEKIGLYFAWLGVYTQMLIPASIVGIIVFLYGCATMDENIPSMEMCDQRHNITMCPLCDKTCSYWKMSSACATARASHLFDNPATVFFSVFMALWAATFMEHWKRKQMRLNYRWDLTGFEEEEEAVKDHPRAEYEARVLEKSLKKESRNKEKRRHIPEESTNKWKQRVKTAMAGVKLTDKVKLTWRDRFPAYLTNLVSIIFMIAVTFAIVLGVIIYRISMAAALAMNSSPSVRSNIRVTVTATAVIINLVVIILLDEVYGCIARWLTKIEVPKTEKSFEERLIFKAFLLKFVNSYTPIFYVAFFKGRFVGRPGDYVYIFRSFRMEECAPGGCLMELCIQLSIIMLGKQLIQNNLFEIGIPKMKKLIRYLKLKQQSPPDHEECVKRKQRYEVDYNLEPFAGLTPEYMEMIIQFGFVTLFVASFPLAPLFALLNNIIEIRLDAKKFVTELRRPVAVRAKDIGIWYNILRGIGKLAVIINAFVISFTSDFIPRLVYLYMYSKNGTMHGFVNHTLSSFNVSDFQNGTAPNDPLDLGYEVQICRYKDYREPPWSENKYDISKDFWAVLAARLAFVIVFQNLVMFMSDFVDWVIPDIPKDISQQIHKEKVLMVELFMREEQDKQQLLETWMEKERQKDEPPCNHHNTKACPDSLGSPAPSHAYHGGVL
Excerpt: HEK293 cells stably expressing the TMEM16A (acd) variant were purchased from SB Drug Discovery. The HEK293 TMEM16A (abc) stable cell line was from ChanTest and COLO-205 cells were purchased from ATCC. The same standard buffers and recording conditions listed below were used for QPatch studies on all three cell lines.
Recording Solutions: were made weekly as below and stored at room temperature until used. It is recommended not to add ATP to internal solution until immediately before using on the QPatch. The external buffer (in mM) was 140 NaCl, 4 KCl, 2 CaCl2, 1 MgCl2, 10 HEPES, 10 Glucose, pH7.4, while the internal buffer (in mM) was 110 CsCl, 20 TEA-Cl, 5.374 CaCl2, 1.75 MgCl2, 10 EGTA, 10 HEPES, 4 Na2ATP, pH 7.2.
Once established in whole-cell configuration, cells were clamped to a holding potential (Vhold) of 0 mV on 48 well single hole patch plate. A standardized IV protocol was used to elicit ionic current through the TMEM16A chloride channel at 20 s intervals. Steady-state voltage pulses were from −100 mV to +100 mV in +20 mV steps for a duration of 500 ms. After each pulse the voltage was returned to −100 mV for 50 ms to obtain tail currents, and then returned to the holding potential of 0 mV until the beginning of the next sweep. […] This ensures a minimum of 60 s per concentration incubation before measuring current block. Currents were acquired at 10 kHz and filtered at 2 kHz, leak subtraction and Rseries were disabled. A 1 MΩ minimum resistance was set because cells are held in an open channel state and therefore resistance is low.
A cumulative concentration response was measured where each cell is exposed to five concentrations of test article with a dilution factor of 1:5 (e.g., 0.048, 0.24, 1.2, 6, and 30 μM). Cells were recorded for ∼60 s per solution/compound addition. Initially, external solution is applied twice to allow currents to stabilize. Then vehicle (from the saline reservoir) is added twice to monitor any effect 0.3% DMSO might have on currents. This leads directly into the concentration runs by applying Concentration 1 (single addition) for 1 min. Concentration 2 is then applied for the subsequent minute, etc. Recovery/washout was monitored for a final minute with a final external solution addition.
[…] […] Each cell’s current magnitude was then normalized to itself at the initial 0.3% vehicle control period prior to compound application. This step is to account for differences in current size for each cell. Normalized responses to test article were plotted against their concentrations to reveal a concentration-inhibition plot.
A Normalized Group Hill fit was then performed on the plotted results to yield a pooled IC50 value, reconstructed from a minimum of two cells/concentration. The baseline response as well as the full response were constrained to 1 and 0, respectively.

mouse tracheal rings = assay: Wire myograph bronchodilation of carbachol pre-contracted mouse tracheal rings; details: for EC50: Mus musculus; for time to steady-state relaxation of mouse tracheal rings: EC75 carbachol; for onset of action: bronchodilating mouse airways, summary
Description: The trachea from C57 BL/6 mice was dissected and collected in PBS with Mg^2+ and Ca^2+. After further trimming, two 2 mm sections (rings) per trachea were then placed in DMEM media containing PSG/HEPES/AA/NaPyr for 1 h and used immediately or maintained overnight at 37°C in a humidified incubator with 5% CO2. Rings were then mounted into chambers of DMT wire myograph containing L-shaped mounting pins with 2–3 mN of force applied to secure rings on the pins and the rings were allowed to equilibrate for 25–30 min in a physiological saline buffer (PSS, 130 mM NaCl, 4.7 mM KCl, 1.2 mM MgS04, 14.9 mM NaHCO3, 1.2 mM KH2PO4, 0.026 mM EDTA, 1.6 mM CaCl2, 5.5 mM Dextrose). Throughout the experiment, rings were maintained at physiological temperature and gas conditions by heating buffer reservoir and chamber to 37°C and bubbling a 95% O2, 5% CO2 gas mixture into chamber.
After equilibration, a standard tissue “Wake-Up” procedure was applied by altering tension and then treatment with elevated potassium as follows: 3 mN tension was applied for 5–10 min, then another 2–3 mN tension to total of 5.5 mN and then to 7–8 mN for another 5 min; the tissue pre-tension was then set to 5 mN and allowed to equilibrate for 5–10 min followed by the removal of the PSS buffer and addition of KPSS (60 mM KCl, 74.7 mM NaCl in PSS solution), with force changes monitored until they reached a plateau. The tissue was then washed four times with PSS over 5 min and the KPSS treatment and washes repeated; the tissue was then allowed to sit in PSS for 10 min and the tension was set to 5 mN.
The tissue was then washed three times and then three times more with PSS for 5 min until tension returned to baseline.
Only tissue that passed the qualification tests above advanced to studies on test article compounds. […] For standard ascending dose-response studies on TMEM16A antagonists, an EC75 or EC95 concentration of CCh was used to pre-contract tracheal rings.

[1] = carbachol pre-contracted, values marked † (footnote not given), read-out: Bronchodilation of Mouse Tracheal Rings (EC50)
[2] = carbachol pre-contracted, values marked § (footnote not given), read-out: Bronchodilation of Mouse Tracheal Rings (EC50)
[3] = pre-contracted with EC75 carbachol, average, read-out: EC50 relaxation of mouse tracheal rings

| Compound | effect on inward current at −100 mV, whole cell patch clamp (TMEM16A (acd)) | IC50 (TMEM16A (acd)) | EC50 (mouse tracheal rings; [1]) | further results |
| --- | --- | --- | --- | --- |
| N#Cc1c(C(F)(F)F)cc(O)n2c1nc1ccccc12 [1PBC] | paradoxical increase | 2810 ± 1250 nM | 1770 nM | calcium-activated chloride current inhibited (TMEM16A (acd)): Over 80% |
| CCc1oc2ccccc2c1C(=O)c1cc(Br)c(O)c(Br)c1 [Benzbromarone] | inhibited | 4090 ± 2080 nM | 1280 ± 211 nM | time to steady-state relaxation of mouse tracheal rings (mouse tracheal rings; 1 μM): 40 to 60 min; EC50 (mouse tracheal rings; pre-contracted with EC75 carbachol, read-out: EC50 relaxation of mouse tracheal rings): 1280 nM; onset of action (mouse tracheal rings): 17 to 60 min |
| CC(C)(C)C1CCc2c(sc(NC(=O)c3ccco3)c2C(=O)O)C1 (centres unmarked) [CaCCinh-A01] |  |  | 13500 nM |  |
| O=C(Nc1ccc([N+](=O)[O-])cc1)c1cc(Cl)ccc1O [Cpd 2] |  |  | 483 nM | EC50 (mouse tracheal rings; [2]): 585 nM |
| O=C(Nc1ccc([N+](=O)[O-])cc1)c1cc(Cl)c2ccccc2c1O [Cpd 3] | no significant effect | 610 ± 620 nM |  | EC50 (mouse tracheal rings; [2]): 606 ± 3 nM |
| COc1cc([N+](=O)[O-])ccc1NC(=O)c1cc(Cl)c2ccccc2c1O [Cpd 4] | no significant effect | 620 ± 370 nM | 467 ± 167 nM | time to steady-state relaxation of mouse tracheal rings (mouse tracheal rings; 316 nM): 25 to 45 min; EC50 (mouse tracheal rings; [3]): ~332 nM; onset of action (mouse tracheal rings): 17 to 60 min |
| O=C(Nc1ccc(Cl)cc1)c1cc(Cl)ccc1O [Cpd 5] |  | 2260 ± 650 nM | 1120 nM |  |
| Oc1ccc(Cl)cc1Cc1cc(Cl)ccc1O [Dichlorophen] |  | 4660 ± 2200 nM | 2010 nM |  |
| COc1cc(Nc2ccc([N+](=O)[O-])cc2C(=O)O)cc2ccccc12 [MONNA] | inhibited | 13600 ± 9760 nM | 3020 nM |  |
| O=C(Nc1ncc([N+](=O)[O-])s1)c1cccs1 [NTTP] |  | 4690 nM |  | EC50 (mouse tracheal rings; [2]): 7610 nM |
| O=C(Nc1ccc([N+](=O)[O-])cc1Cl)c1cc(Cl)ccc1O [Niclosamide] | paradoxical increase | 2370 ± 2110 nM | 379 ± 82 nM | time to achieve steady state block (TMEM16A (acd); 1.11 μM): about 10 min; time to achieve steady state block (TMEM16A (acd); 3.3 μM): approximately 4 min; calcium-activated chloride current inhibited (TMEM16A (acd)): Over 80%; time to steady-state relaxation of mouse tracheal rings (mouse tracheal rings; 1 μM): 17 to 35 min; EC50 (mouse tracheal rings; [3]): 365 nM; onset of action (mouse tracheal rings): 17 to 60 min |
| O=C(O)c1cccnc1Nc1cccc(C(F)(F)F)c1 [Niflumic Acid] | stimulating | 8540 ± 6750 nM | 51200 nM |  |
| CCc1c(C)nc(SCC(=O)Nc2nc(-c3ccc(OC)cc3)cs2)[nH]c1=O [T16Ainh-A01] |  | > 30000 nM | > 50000 nM |  |
| O=C(Nc1ncc([N+](=O)[O-])s1)c1ccccc1O [Tizoxanide] |  | 4420 ± 2400 nM | 3900 nM |  |
